Test results as given in patent publication US8080522B2, “Polyethlene glycol modifications of thymosin alpha-1” (Institute of Pharmacology and Toxicology Academy of …, priority 2005, dated 2011).

How the values were obtained:
[1] = Plasma concentration / pharmacokinetics in mouse (competitive ELISA); assay type: in vivo; details: 300 μg per mouse, injected peritoneally, parameters in 24 h; for AUC: n = 3; for Cmax / Tmax: serum, ip, 300 ug/animal; for Cmax: n = 3, read-out: Cmax; for Tmax: n = 3, read-out: Tmax
Description: Coating antigen: Dilute Tα1 detection antigen stock solution to a final concentration of 2 μg/mL with coating solution, and add it into the wells of ELISA plate for 0.1 mL per well, and incubate at 4° C. for 5 days. Then wash the ELISA plate 3 times with washing buffer, each 0.2 mL/well and 3 min/time. Add 0.2 mL blocking buffer to each well, incubate for 1.5 hours at 37° C., wash plate 2 times by washing buffer, and spin dried.
Sample preparation: Weight sample accurately, dissolve it in saline to a concentration of 1.5 mg/mL. Administrate 0.2 Ml by injection to each mouse peritoneally. Collect blood sample in 3 min, 20 min, 40 min, 1 h, 2 h, 3 h, 6 h, 8 h, 12 h, and 24 h. Collect serum by centrifuge the blood samples for 5 minutes at 10000 rpm, stored at −20° C. in a freezer. o prepare test sample, […] was added by 0.1 mL 1:1500 rabbit anti-Tα1 serum (final concentration is 1:6000), and 0.2 mL CD-1® mouse serum, and […]. Prepare blank control at the same time. Total volume is 0.4 mL. Incubate for 2 hours at 37° C. To prepare standard sample, Tα1 0.1 mL with different concentrations from 0.0004 to 400 μg/mL was added by 0.1 mL 1:1500 rabbit anti-Tα1 serum (final concentration is 1:6000), and 0.2 mL CD-1® mouse serum. Prepare blank control at the same time. Total volume is 0.4 mL. Incubate for 2 hours at 37° C.
Sample Testing Add the prepared test sample and standard sample to ELISA plate, 0.1 mL/well, reacting for 1 hour in 37° C. chamber. Wash the plates 3 times, spin dryed. Add substrate 0.1 mL/well for 10 minutes. Add 2 mol/L H2SO4 0.05 mL to each well to terminate the reaction. Measure the OD value at 450 nm. Plot the standard curve with the concentration of Tα1 standard sample as abscissa and OD value as vertical coordinate. Calculate the content of test sample according to this standard curve.

[2] = test system: T lymphocyte (spleen cell); assay: T lymphocyte proliferation stimulated by Con A (3H-TdR incorporation); assay type: cell-based, mouse; details: for 3H-TdR incorporation (cpm, x ± SD): Con A 0.5 μg/mL, 72 hours, n = 4; for Enhancement percentage: versus Con A alone
Description: Sacrifice mouse by draining artery blood, remove spleen in sterile condition, and make it to spleen cell suspension. After red blood cell lysis, wash for 3 times, and stain with Trypan Blue to count the living cells. The amount of living cells should be more than 95%. Dilute the cell concentration to 5×10^6 cell/mL by adding RPMI-1640 culture with 10% bovine serum. Add spleen cell suspension to a sterilized 96-well plate for 100 μL per well. The total amount is 200 μL per well (including 50 μL Con A and 50 μL medicament). Each sample concentration is repeated fro 3-4 wells. Incubate the plate in a 5% CO2 chamber for 72 hours, add 10 μci/mL ^3H-TdR 20 μL per well 16 hours before termination of the incubation, giving rise to a final concentration of 1.0 μci (37.0 KBq)/mL. Collect cells on filter membrane by using Herveste 96 cell harvester, dried in 80° C. oven for 20 minutes or dried in air. Put the dried filter membrane into 1450-423 microBeta sample bag, add scintillation liquid, and measure radioactivity (cpm) in Perkin Elmer MicroBeta Trilux 1450 Scintillation Counter.

[3] = test system: spleen cell; assay: Interferon-γ production of spleen cells stimulated by Con A (double antibody sandwich ELISA); assay type: cell-based; details: for Concentration of IFN-γ: Con A 0.5 μg/mL, 24 hours, n = 3; for Enhancement percentage: versus Con A alone
Description: Prepare spleen cell suspension in sterile condition. Adjust cell concentration to 5×10^6 cell/mL by adding RPMI-1640 culture with 20% bovine serum. Add 0.5 mL cell suspension, 0.25 mL Con A (final concentration is 0.5 μg/mL) and 0.25 mL samples with different concentrations in 24-well plate; and add RPMI-1640 culture in control wells. Incubate the plates in a 5% CO2 chamber at 37° C. for 24 hours. Centrifuge and collect supernatant, test the content of IFN-γ in supernatant by double antibody sandwich ELISA. The protocol is according to the instruction on ELISA kit.

[4] = Half-life in liver homogenate (HPLC); assay type: in vitro ADME; details: 37° C., sample 0.4 mg/mL or 0.8 mg/mL, read-out: t1/2 in liver homogenate (converted)
Description: Experimental method: Prepare 0.4 mg/mL or 0.8 mg/mL sample aqueous solution in centrifuge tube, adding 50 μL liver homogenate. Then incubate for different time in 37° C. water bath. Terminate the reaction and precipitate liver homogenate protein by heating the mixture in boiling water for 5 minutes. Centrifuge it (10000 rpm) for 10 minutes. Analyze the supernatant by HPLC. The data was statistically analyzed by Origin Prof. 5.0.
HPLC: Column temperature: 25° C.; Flow rate 1.0 mL/min; Detection wavelength: 200 nm; Mobile phase A: 0.1% TFA/H2O; Mobile phase B: 0.1% TFA/70% CH3CN.

Substance | AUC [1] [ng·h/mL] | Cmax [1] [ng/mL] | Tmax [1] [min] | 3H-TdR incorporation (cpm, x ± SD) ([2]; Table 2-2, sample 10 μg/mL) [cpm] | Enhancement percentage ([2]; Table 2-2, sample 10 μg/mL) | 3H-TdR incorporation (cpm, x ± SD) ([2]; Table 2-2, sample 50 μg/mL) [cpm] | Enhancement percentage ([2]; Table 2-2, sample 50 μg/mL) | 3H-TdR incorporation (cpm, x ± SD) ([2]; Table 2-2, sample 100 μg/mL) [cpm] | Enhancement percentage ([2]; Table 2-2, sample 100 μg/mL) | Concentration of IFN-γ ([3]; Table 1-2, sample 1 μg/mL) [pg/mL] | Enhancement percentage ([3]; Table 1-2, sample 1 μg/mL) | Concentration of IFN-γ ([3]; Table 1-2, sample 10 μg/mL) [pg/mL] | Enhancement percentage ([3]; Table 1-2, sample 10 μg/mL) | Concentration of IFN-γ ([3]; Table 1-2, sample 100 μg/mL) [pg/mL] | Enhancement percentage ([3]; Table 1-2, sample 100 μg/mL) | half-life [4] [min] | 3H-TdR incorporation (cpm, x ± SD) ([2]; Table 2-1, sample 10 μg/mL) [cpm] | Enhancement percentage ([2]; Table 2-1, sample 10 μg/mL) | 3H-TdR incorporation (cpm, x ± SD) ([2]; Table 2-1, sample 50 μg/mL) [cpm] | Enhancement percentage ([2]; Table 2-1, sample 50 μg/mL) | also measured
Ac-SDAACDTSSEITTKDLKEKKEVVEEAEN-OH [BMJBT001] | 3090 | 448 | 20 | 19289 ± 4456 | +65.7% | 19972 ± 3287 | +71.6% | 21119 ± 5339 | +81.4% | 3000.5 ± 56.1 | −7.9% | 3584.2 ± 31.6 | +10.0% | 3618.5 ± 93.8 | +11.0% | 228 |  |  |  |  | 
Ac-SDAAVDTCSEITTKDLKEKKEVVEEAEN-OH [BMJBT002] | 2440 | 1860 | 20 | 23881 ± 2809 | +105.1% | 19611 ± 2612 | +68.5% | 11956 ± 1555 | +2.6% |  |  |  |  |  |  | 126 |  |  |  |  | 
Ac-SDAAVDTSSECTTKDLKEKKEVVEEAEN-OH [BMJBT003] | 8710 | 5650 | 20 | 21825 ± 2216 | +87.5% | 20465 ± 2432 | +77.3% | 15240 ± 2369 | +30.9% | 3428.6 ± 111.9 | +5.2% | 3732.2 ± 30.2 | +14.5% | 3990.8 ± 250.0 | +22.5% | 168 |  |  |  |  | 
Ac-SDAAVDTSSEITTKDCKEKKEVVEEAEN-OH [BMJBT004] | 8760 | 4940 | 20 |  |  |  |  |  |  | 3671.1 ± 86.0 | +12.7% | 3216.1 ± 228.6 | −1.3% | 3565.9 ± 77.8 | +0.5% | 48 |  |  |  |  | 
Ac-SDAAVDTSSEITTKDLCEKKEVVEEAEN-OH [BMJBT005] | 6110 | 3650 | 20 |  |  |  |  |  |  |  |  |  |  |  |  | 168 | 22237 ± 5551 | +64.9% | 22413 ± 1436 | +66.2% | 3H-TdR incorporation (cpm, x ± SD) ([2]; Table 2-1, sample 100 μg/mL): 17551 ± 2491 cpm; Enhancement percentage ([2]; Table 2-1, sample 100 μg/mL): +30.1%; Concentration of IFN-γ ([3]; Table 1-1, sample 1 μg/mL): 1822.2 ± 24.3 pg/mL; Enhancement percentage ([3]; Table 1-1, sample 1 μg/mL): +142.4%; Concentration of IFN-γ ([3]; Table 1-1, sample 10 μg/mL): 1706.5 ± 139.3 pg/mL; Enhancement percentage ([3]; Table 1-1, sample 10 μg/mL): +127.0%; Concentration of IFN-γ ([3]; Table 1-1, sample 100 μg/mL): 906.9 ± 10.7 pg/mL; Enhancement percentage ([3]; Table 1-1, sample 100 μg/mL): +20.6%
Ac-SDAAVDTSSEITTKDLKEKKCVVEEAEN-OH [BMJBT006] | 12800 | 11500 | 20 |  |  |  |  |  |  |  |  |  |  |  |  | 156 | 21152 ± 2936 | +56.8% | 19880 ± 1777 | +47.4% | 3H-TdR incorporation (cpm, x ± SD) ([2]; Table 2-1, sample 100 μg/mL): 14319 ± 2333 cpm; Enhancement percentage ([2]; Table 2-1, sample 100 μg/mL): +6.2%
Ac-SDAAVDTSSEITTKDLKEKKEVVEEAEN-OH [Tα1, reference compound] | 9220 | 10100 | 20 | 18315 ± 2194 | +57.3% | 17007 ± 1526 | +46.1% | 14383 ± 3225 | +23.5% |  |  |  |  |  |  | 252 | 17871 ± 4635 | +32.5% | 17007 ± 1526 | +26.1% | 3H-TdR incorporation (cpm, x ± SD) ([2]; Table 2-1, sample 100 μg/mL): 14624 ± 3253 cpm; Enhancement percentage ([2]; Table 2-1, sample 100 μg/mL): +6.6%; Concentration of IFN-γ ([3]; Table 1-1, sample 1 μg/mL): 1449.3 ± 334.3 pg/mL; Enhancement percentage ([3]; Table 1-1, sample 1 μg/mL): +92.8%; Concentration of IFN-γ ([3]; Table 1-1, sample 10 μg/mL): 1514.0 ± 102.1 pg/mL; Enhancement percentage ([3]; Table 1-1, sample 10 μg/mL): +101.4%; Concentration of IFN-γ ([3]; Table 1-1, sample 100 μg/mL): 1007.2 ± 31.3 pg/mL; Enhancement percentage ([3]; Table 1-1, sample 100 μg/mL): +34.0%; Concentration of IFN-γ ([3]; Table 1-3, sample 1 μg/mL): 3609.6 ± 167.8 pg/mL; Enhancement percentage ([3]; Table 1-3, sample 1 μg/mL): +18.2%; Concentration of IFN-γ ([3]; Table 1-3, sample 10 μg/mL): 3891.5 ± 106.1 pg/mL; Enhancement percentage ([3]; Table 1-3, sample 10 μg/mL): +27.4%; Concentration of IFN-γ ([3]; Table 1-3, sample 100 μg/mL): 4361.3 ± 87.8 pg/mL; Enhancement percentage ([3]; Table 1-3, sample 100 μg/mL): +42.8%
